Measurements from patent US20230143604A1, “QW DOSING OF GIP RECEPTOR AGONIST PEPTIDE COMPOUNDS AND USES THEREOF” (TAKEDA PHARMACEUTICAL COMPANY LIMITED, priority 2020, published 2023).
Starred links: 1 amine or outer side, 2 acyl side, 3 side chain; linkers in the order of their positions; H or OH if unused. Non-standard residues stand in square brackets, D forms with d. Residues, ends and D or L forms follow the SMILES beside them. Groups on a side chain read outwards from the residue. *: point of attachment. C18 diacid = O=C(O)CCCCCCCCCCCCCCCCC(=O)*; γGlu = O=C(O)[C@H](CCC(=O)[*:2])N[*:1]; AEEA = NCCOCCOCC(=O)O; Aib = CC(C)(N)C(=O)O

Assay: physchem
In short: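 Solubility at pH 7.4 determined by stepwise addition of 200 mM phosphate buffer in 100 μL increments to 3 mg peptide, mixing briefly each time, until no insoluble material remained, then measured by liquid chromatography.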

| SMILES | solubility (pH 7.4) | solubility (pH 7.4, aqueous buffer) |
| --- | --- | --- |
| CC[C@H](C)[C@H](NC(=O)[C@H](CO)NC(=O)[C@H](Cc1ccc(O)cc1)NC(=O)[C@H](CC(=O)O)NC(=O)[C@H](CO)NC(=O)[C@@H](NC(=O)[C@H](Cc1ccccc1)NC(=O)[C@@H](NC(=O)CNC(=O)[C@H](CCC(=O)O)NC(=O)C(C)(C)NC(=O)[C@@H](N)Cc1ccc(O)cc1)[C@@H](C)O)[C@@H](C)CC)C(=O)N[C@@H](C)C(=O)NC(C)(C)C(=O)N[C@@H](CC(=O)O)C(=O)N[C@@H](CCCCN)C(=O)N[C@@H](C)C(=O)N[C@@H](CCCCNC(=O)COCCOCCNC(=O)COCCOCCNC(=O)CC[C@H](NC(=O)CCCCCCCCCCCCCCCCC(=O)O)C(=O)O)C(=O)N[C@@H](CCC(N)=O)C(=O)N[C@@H](CCC(N)=O)C(=O)N[C@@H](CC(=O)O)C(=O)N[C@@H](Cc1ccccc1)C(=O)N[C@H](C(=O)N[C@@H](CCC(=O)O)C(=O)N[C@@H](Cc1c[nH]c2ccccc12)C(=O)N[C@@H](CC(C)C)C(=O)N[C@@H](CC(C)C)C(=O)N[C@@H](C)C(=O)N[C@@H](CCC(N)=O)C(=O)N[C@@H](CCCNC(=N)N)C(=O)NCC(=O)O)C(C)C [Compound 164] (H-Y[Aib]EGTFISDYSIA[Aib]DKAK([AEEA-AEEA-γGlu-C18 diacid])QQDFVEWLLAQRG-OH) | ≥ 15 mg/mL | ≥ 30 mg/mL |
| CC[C@H](C)[C@H](NC(=O)[C@H](CO)NC(=O)[C@H](Cc1ccc(O)cc1)NC(=O)[C@H](CC(=O)O)NC(=O)[C@H](CO)NC(=O)[C@@H](NC(=O)[C@H](Cc1ccccc1)NC(=O)[C@@H](NC(=O)CNC(=O)[C@H](CCC(=O)O)NC(=O)C(C)(C)NC(=O)[C@@H](N)Cc1ccc(O)cc1)[C@@H](C)O)[C@@H](C)CC)C(=O)N[C@@H](C)C(=O)NC(C)(C)C(=O)N[C@@H](CC(=O)O)C(=O)N[C@@H](CCCCN)C(=O)N[C@@H](C)C(=O)N[C@@H](CCCCNC(=O)COCCOCCNC(=O)COCCOCCNC(=O)CC[C@H](NC(=O)CCCCCCCCCCCCCCCCC(=O)O)C(=O)O)C(=O)N[C@@H](CCC(N)=O)C(=O)N[C@@H](C)C(=O)N[C@@H](CC(=O)O)C(=O)N[C@@H](Cc1ccccc1)C(=O)N[C@H](C(=O)N[C@@H](CCC(=O)O)C(=O)N[C@@H](Cc1c[nH]c2ccccc12)C(=O)N[C@@H](CC(C)C)C(=O)N[C@@H](CC(C)C)C(=O)N[C@@H](C)C(=O)N[C@@H](CCC(N)=O)C(=O)N[C@@H](CCCNC(=N)N)C(=O)NCC(=O)O)C(C)C [Compound 165] (H-Y[Aib]EGTFISDYSIA[Aib]DKAK([AEEA-AEEA-γGlu-C18 diacid])QADFVEWLLAQRG-OH) | ≥ 15 mg/mL | ≥ 30 mg/mL |
| CC[C@H](C)[C@H](NC(=O)[C@H](CO)NC(=O)[C@H](Cc1ccc(O)cc1)NC(=O)[C@H](CC(=O)O)NC(=O)[C@H](CO)NC(=O)[C@@H](NC(=O)[C@H](Cc1ccccc1)NC(=O)[C@@H](NC(=O)CNC(=O)[C@H](CCC(=O)O)NC(=O)C(C)(C)NC(=O)[C@@H](N)Cc1ccc(O)cc1)[C@@H](C)O)[C@@H](C)CC)C(=O)N[C@@H](C)C(=O)NC(C)(C)C(=O)N[C@@H](CC(=O)O)C(=O)N[C@@H](CCCCN)C(=O)N[C@H](C(=O)N[C@@H](CCCCNC(=O)COCCOCCNC(=O)COCCOCCNC(=O)CC[C@H](NC(=O)CCCCCCCCCCCCCCCCC(=O)O)C(=O)O)C(=O)N[C@@H](CCC(N)=O)C(=O)N[C@@H](C)C(=O)N[C@@H](CC(=O)O)C(=O)N[C@@H](Cc1ccccc1)C(=O)N[C@H](C(=O)N[C@@H](CCC(=O)O)C(=O)N[C@@H](Cc1c[nH]c2ccccc12)C(=O)N[C@@H](CC(C)C)C(=O)N[C@@H](CC(C)C)C(=O)N[C@@H](C)C(=O)N[C@@H](CCC(N)=O)C(=O)N[C@@H](CCCNC(=N)N)C(=O)NCC(=O)O)C(C)C)[C@@H](C)CC [Compound 166] (H-Y[Aib]EGTFISDYSIA[Aib]DKIK([AEEA-AEEA-γGlu-C18 diacid])QADFVEWLLAQRG-OH) | ≥ 15 mg/mL | ≥ 30 mg/mL |
| CC[C@H](C)[C@H](NC(=O)[C@H](Cc1ccccc1)NC(=O)[C@@H](NC(=O)CNC(=O)[C@H](CCC(=O)O)NC(=O)C(C)(C)NC(=O)[C@@H](N)Cc1ccc(O)cc1)[C@@H](C)O)C(=O)N[C@@H](CO)C(=O)N[C@@H](CC(=O)O)C(=O)N[C@@H](Cc1ccc(O)cc1)C(=O)N[C@@H](CO)C(=O)N[C@H](C(=O)NC(C)(C)C(=O)N[C@@H](CC(C)C)C(=O)N[C@@H](CC(=O)O)C(=O)N[C@@H](CCCCN)C(=O)N[C@@H](C)C(=O)N[C@@H](C)C(=O)N[C@@H](CCC(N)=O)C(=O)N[C@@H](CCC(N)=O)C(=O)N[C@@H](CCCCNC(=O)COCCOCCNC(=O)COCCOCCNC(=O)CC[C@H](NC(=O)CC[C@H](NC(=O)CCCCCCCCCCCCCCCCC(=O)O)C(=O)O)C(=O)O)C(=O)N[C@@H](Cc1ccccc1)C(=O)N[C@H](C(=O)N[C@@H](CCC(=O)O)C(=O)N[C@@H](Cc1c[nH]c2ccccc12)C(=O)N[C@@H](CC(C)C)C(=O)N[C@@H](CC(C)C)C(=O)N[C@@H](C)C(=O)N[C@@H](CCC(N)=O)C(=O)N[C@@H](CCCNC(=N)N)C(=O)NCC(=O)O)C(C)C)[C@@H](C)CC [Compound 167] (H-Y[Aib]EGTFISDYSI[Aib]LDKAAQQK([AEEA-AEEA-γGlu-γGlu-C18 diacid])FVEWLLAQRG-OH) | ≥ 15 mg/mL | ≥ 30 mg/mL |
| CC[C@H](C)[C@H](NC(=O)[C@H](Cc1ccccc1)NC(=O)[C@@H](NC(=O)CNC(=O)[C@H](CCC(=O)O)NC(=O)C(C)(C)NC(=O)[C@@H](N)Cc1ccc(O)cc1)[C@@H](C)O)C(=O)N[C@@H](CO)C(=O)N[C@@H](CC(=O)O)C(=O)N[C@@H](Cc1ccc(O)cc1)C(=O)N[C@@H](CO)C(=O)N[C@H](C(=O)NC(C)(C)C(=O)N[C@@H](CC(C)C)C(=O)N[C@@H](CC(=O)O)C(=O)N[C@@H](CCCCN)C(=O)N[C@@H](C)C(=O)N[C@@H](C)C(=O)N[C@@H](CCC(N)=O)C(=O)N[C@@H](C)C(=O)N[C@@H](CCCCNC(=O)COCCOCCNC(=O)COCCOCCNC(=O)CC[C@H](NC(=O)CC[C@H](NC(=O)CCCCCCCCCCCCCCCCC(=O)O)C(=O)O)C(=O)O)C(=O)N[C@@H](Cc1ccccc1)C(=O)N[C@H](C(=O)N[C@@H](CCC(=O)O)C(=O)N[C@@H](Cc1c[nH]c2ccccc12)C(=O)N[C@@H](CC(C)C)C(=O)N[C@@H](CC(C)C)C(=O)N[C@@H](C)C(=O)N[C@@H](CCC(N)=O)C(=O)N[C@@H](CCCNC(=N)N)C(=O)NCC(=O)O)C(C)C)[C@@H](C)CC [Compound 168] (H-Y[Aib]EGTFISDYSI[Aib]LDKAAQAK([AEEA-AEEA-γGlu-γGlu-C18 diacid])FVEWLLAQRG-OH) | ≥ 15 mg/mL | ≥ 30 mg/mL |
| CC[C@H](C)[C@H](NC(=O)[C@H](Cc1ccccc1)NC(=O)[C@@H](NC(=O)CNC(=O)[C@H](CCC(=O)O)NC(=O)C(C)(C)NC(=O)[C@@H](N)Cc1ccc(O)cc1)[C@@H](C)O)C(=O)N[C@@H](CO)C(=O)N[C@@H](CC(=O)O)C(=O)N[C@@H](Cc1ccc(O)cc1)C(=O)N[C@@H](CO)C(=O)N[C@H](C(=O)NC(C)(C)C(=O)N[C@@H](CC(C)C)C(=O)N[C@@H](CC(=O)O)C(=O)N[C@@H](CCCCN)C(=O)N[C@@H](C)C(=O)N[C@@H](CCCCNC(=O)COCCOCCNC(=O)COCCOCCNC(=O)CC[C@H](NC(=O)CCCCCCCCCCCCCCCCC(=O)O)C(=O)O)C(=O)N[C@@H](CCC(N)=O)C(=O)N[C@@H](CCC(N)=O)C(=O)N[C@@H](CC(=O)O)C(=O)N[C@@H](Cc1ccccc1)C(=O)N[C@H](C(=O)N[C@@H](CCC(=O)O)C(=O)N[C@@H](Cc1c[nH]c2ccccc12)C(=O)N[C@@H](CC(C)C)C(=O)N[C@@H](CC(C)C)C(=O)N[C@@H](C)C(=O)N[C@@H](CCC(N)=O)C(=O)N[C@@H](CCCNC(=N)N)C(=O)NCC(=O)O)C(C)C)[C@@H](C)CC [Compound 169] (H-Y[Aib]EGTFISDYSI[Aib]LDKAK([AEEA-AEEA-γGlu-C18 diacid])QQDFVEWLLAQRG-OH) | ≥ 15 mg/mL | ≥ 30 mg/mL |
| CC[C@H](C)[C@H](NC(=O)[C@H](Cc1ccccc1)NC(=O)[C@@H](NC(=O)CNC(=O)[C@H](CCC(=O)O)NC(=O)C(C)(C)NC(=O)[C@@H](N)Cc1ccc(O)cc1)[C@@H](C)O)C(=O)N[C@@H](CO)C(=O)N[C@@H](CC(=O)O)C(=O)N[C@@H](Cc1ccc(O)cc1)C(=O)N[C@@H](CO)C(=O)N[C@H](C(=O)NC(C)(C)C(=O)N[C@@H](CC(C)C)C(=O)N[C@@H](CC(=O)O)C(=O)N[C@@H](CCCCN)C(=O)N[C@@H](C)C(=O)N[C@@H](CCCCNC(=O)COCCOCCNC(=O)COCCOCCNC(=O)CC[C@H](NC(=O)CCCCCCCCCCCCCCCCC(=O)O)C(=O)O)C(=O)N[C@@H](CCC(N)=O)C(=O)N[C@@H](CCC(N)=O)C(=O)N[C@@H](CC(=O)O)C(=O)N[C@@H](Cc1ccccc1)C(=O)N[C@H](C(=O)N[C@@H](CC(N)=O)C(=O)N[C@@H](Cc1c[nH]c2ccccc12)C(=O)N[C@@H](CC(C)C)C(=O)N[C@@H](CC(C)C)C(=O)N[C@@H](C)C(=O)N[C@@H](CCC(N)=O)C(=O)N[C@@H](CCCNC(=N)N)C(=O)NCC(=O)O)C(C)C)[C@@H](C)CC [Compound 170] (H-Y[Aib]EGTFISDYSI[Aib]LDKAK([AEEA-AEEA-γGlu-C18 diacid])QQDFVNWLLAQRG-OH) | ≥ 15 mg/mL | ≥ 30 mg/mL |
| CC[C@H](C)[C@H](NC(=O)[C@H](Cc1ccccc1)NC(=O)[C@@H](NC(=O)CNC(=O)[C@H](CCC(=O)O)NC(=O)C(C)(C)NC(=O)[C@@H](N)Cc1ccc(O)cc1)[C@@H](C)O)C(=O)N[C@@H](CO)C(=O)N[C@@H](CC(=O)O)C(=O)N[C@@H](Cc1ccc(O)cc1)C(=O)N[C@@H](CO)C(=O)N[C@H](C(=O)NC(C)(C)C(=O)N[C@@H](CC(C)C)C(=O)N[C@@H](CC(=O)O)C(=O)N[C@@H](CCCCN)C(=O)N[C@@H](C)C(=O)N[C@@H](CCCCNC(=O)COCCOCCNC(=O)COCCOCCNC(=O)CC[C@H](NC(=O)CCCCCCCCCCCCCCCCC(=O)O)C(=O)O)C(=O)N[C@@H](CCC(N)=O)C(=O)N[C@@H](C)C(=O)N[C@@H](CC(=O)O)C(=O)N[C@@H](Cc1ccccc1)C(=O)N[C@H](C(=O)N[C@@H](CC(N)=O)C(=O)N[C@@H](Cc1c[nH]c2ccccc12)C(=O)N[C@@H](CC(C)C)C(=O)N[C@@H](CC(C)C)C(=O)N[C@@H](C)C(=O)N[C@@H](CCC(N)=O)C(=O)N[C@@H](CCCNC(=N)N)C(=O)NCC(=O)O)C(C)C)[C@@H](C)CC [Compound 171] (H-Y[Aib]EGTFISDYSI[Aib]LDKAK([AEEA-AEEA-γGlu-C18 diacid])QADFVNWLLAQRG-OH) | ≥ 15 mg/mL | ≥ 30 mg/mL |
